Holding throughout (experiment): growth of human tumour cells (NCI), 48 h
Test [1] relates to 786-0 renal.
Test [2] deals with SK-MEL-28 melanoma.
The test system of test [3] is HOP-92 NSCLC.
Test [4] concerns SN12C renal.
Test [5] deals with NCI-H460 lung.
In test [6] the test system is TK-10 renal.
Test [7] has as its system SW-620 colon.
The test system of test [8] is SF-268 CNS.
Test [9] deals with MDA-MB-435.
The subject of test [10] is BT-549 breast.

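Step 1: Grow cells in 96-well plates. Step 2: Expose to compound for 48 hours at 5 concentrations. Step 3: Interpolate endpoints linearly; if unreached, use highest concentration. Here, GI50 denotes the concentration required for 50% inhibition of growth. Definition used: TGI = concentration required for complete inhibition of growth.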

This is an account of results in PubChem BioAssay (NCI).

Regarding `COc1ccc(CN2C(=O)C(Cc3cc(OC)c(OC)c(C)c3OC)N(C(=O)OC(C)C)C(=O)/C2=C/c2cc(OC)c(OC)c(C)c2OC)cc1` (stereo not drawn), the TGI in test [1], in [2], in [3], in test [4], in test [5] and in test [6] was over 100 µM in each case. In addition, the TGI in test [7] and in test [8] was over 100 µM throughout.
Take `O=C1OC(c2ccccc2)C2CC3CC4(CCC3CN12)OCCO4` (stereo not drawn): the TGI in test [1], in test [2], in test [3], in [4], in test [5] and in [6] was over 100 µM each time. In addition, the TGI in test [7] and in test [8] was over 100 µM in each case.
In the case of `C[C@]12CCC3[C@@H](C[C@H]4OC(=O)[C@@]35CCC(=O)C=C45)C1CCC2=O` (stereo partly drawn), the TGI in test [1], in test [2], in [3], in test [4], in test [5] and in test [6] was over 100 µM throughout. Also, the TGI in [7] and in test [8] was over 100 µM in each case.
Regarding `CN(C)c1ccccc1CC(c1c[nH]c2ccccc12)c1c[nH]c2ccccc12`, the TGI turned out to be 25.4 µM in test [1]; 12.7 µM in [4]; 16 µM in test [5]; 29.9 µM in test [6]; 19.2 µM in test [7]; 28.8 µM in [8].
`O=C(c1ccccc1)c1ccc(Cl)c([N+](=O)[O-])c1`: the GI50 in test [1] was 21 µM; in test [9], 4.53 µM; in test [2], 5.59 µM; in [10] it was 16.7 µM; in test [4] it was 3.81 µM; in test [5] it was 18.5 µM. The results for the GI50 in test [7] and in test [8] were 5.27 µM and 4.48 µM, respectively. For the same molecule, the TGI in test [1] came to 99.2 µM; in test [9], 17.1 µM; in [2] it was 19 µM; in [10], 31.5 µM; in [4], 14.8 µM; in [5], 39.3 µM. Further, the TGI worked out at 21.9 µM in test [7] and 18 µM in [8].
As to `Cc1cc(C)nc(NS(=O)(=O)c2ccc(NC(=O)c3cccc4c(Nc5ccc(S(=O)(=O)Nc6nc(C)cc(C)n6)cc5)c5ccccc5nc34)cc2)n1`, the TGI in [1] is 46.8 µM; in test [2], 46 µM; in test [3] it was 45.1 µM; in test [4] it was 41.1 µM; in test [5], over 100 µM; in test [6], 73.3 µM. The TGI in test [7] was 65.3 µM; in test [8], 93 µM.
Consider `O=c1c2cc(Br)ccc2[nH]c(=S)n1-c1ccc(Br)cc1`, for which the TGI was over 100 µM in test [1]; over 100 µM in [2]; 75.7 µM in [3]; over 100 µM in [4]; over 100 µM in [5]; over 100 µM in test [6]. Also, the TGI in test [7] and in test [8] was over 100 µM in each case.
Regarding `Cc1cc2cc(Cl)ccc2nc1C(=O)c1ccccc1`, the TGI in test [1], in test [2], in test [4], in test [6], in test [7] and in [8] was over 100 µM throughout.
As to `O=C1C(c2ccc([N+](=O)[O-])cc2)=[N+]([O-])c2ccccc21`, the TGI is over 100 µM in test [1]; 77.2 µM in [2]; 77.4 µM in test [3]; 93.5 µM in test [4]; over 100 µM in test [5]; 91.9 µM in test [6]. Further, the TGI in test [7] and in test [8] was over 100 µM in each case.
Consider `O=C(CCc1nnc2s/c(=C\c3ccc4c(c3)OCO4)c(=O)n12)Nc1cc(Cl)ccc1Cl`, for which the TGI in test [1], in [2], in test [3], in [4], in test [5] and in test [6] was over 100 µM in each case. The TGI in [7] is over 60.5 µM; in test [8], over 100 µM.
Turning to `CCOC(=O)NC(=O)c1cn(CCCCCOC(=O)NCCCCCCNC(=O)OCCCCCn2cc(C(=O)NC(=O)OCC)c(=O)[nH]c2=O)c(=O)[nH]c1=O`, the TGI in [1], in test [2], in [4], in test [5], in test [7] and in test [8] was over 100 µM in each case.
For the molecule `O=c1oc2c3ccc4ccccc4c3n(CCN3CCOCC3)c2c2ccccc12`, the TGI in test [1], in test [2], in [3], in test [5], in [6] and in [7] was over 100 µM each time. The TGI in test [8] is over 100 µM.
For the molecule `CN(C)c1ccc(/C=C(\C#N)c2cc3ccccc3n2C)cc1`, the GI50 in test [1] was 0.418 µM; in test [2], 1.07 µM; in test [3] it was 0.556 µM; in test [10] it was 0.618 µM; in test [4] it was 0.482 µM; in [5], 0.353 µM. Besides, the GI50 is over 100 µM in [6], 0.0898 µM in [7] and 2.18 µM in test [8]. Besides, the TGI is over 100 µM in [1]; over 100 µM in test [2]; over 23 µM in [3]; over 100 µM in test [10]; over 100 µM in [4]; 4.4 µM in test [5]. The TGI in test [6], in [7] and in [8] was over 100 µM in each case.
As to `COc1ccc2c(c1)CCc1cnn(C3OC(COC(C)=O)C(OC(C)=O)C(OC(C)=O)C3OC(C)=O)c1-2` (stereo not drawn), the TGI in test [1] was 75.6 µM; in test [2], over 100 µM; in test [3], 51.5 µM; in [4], over 100 µM; in test [5], over 100 µM; in test [6] it was over 100 µM. The TGI in [7] is 36.2 µM; in test [8], over 100 µM.
